Laboratory results published in patent publication US11524966B1 (Valo Early Discovery, Inc., priority 2017, dated 2022).

target: T1, USP25 (USP25-His6, Boston Biochem E-546) (Homo sapiens, UniProt Q9UHP3); assay: Ubiquitin-Rhodamine 110 Assay for USP25 Activity, Example A-2; type: biochemical; details: Ubiquitin-Rhodamine 110 assay, Example A-2; read-out: USP25 A-2 IC50 range
T1 construct: His6; purchased Boston Biochem E-546
T1 sequence (Q9UHP3 1-1055): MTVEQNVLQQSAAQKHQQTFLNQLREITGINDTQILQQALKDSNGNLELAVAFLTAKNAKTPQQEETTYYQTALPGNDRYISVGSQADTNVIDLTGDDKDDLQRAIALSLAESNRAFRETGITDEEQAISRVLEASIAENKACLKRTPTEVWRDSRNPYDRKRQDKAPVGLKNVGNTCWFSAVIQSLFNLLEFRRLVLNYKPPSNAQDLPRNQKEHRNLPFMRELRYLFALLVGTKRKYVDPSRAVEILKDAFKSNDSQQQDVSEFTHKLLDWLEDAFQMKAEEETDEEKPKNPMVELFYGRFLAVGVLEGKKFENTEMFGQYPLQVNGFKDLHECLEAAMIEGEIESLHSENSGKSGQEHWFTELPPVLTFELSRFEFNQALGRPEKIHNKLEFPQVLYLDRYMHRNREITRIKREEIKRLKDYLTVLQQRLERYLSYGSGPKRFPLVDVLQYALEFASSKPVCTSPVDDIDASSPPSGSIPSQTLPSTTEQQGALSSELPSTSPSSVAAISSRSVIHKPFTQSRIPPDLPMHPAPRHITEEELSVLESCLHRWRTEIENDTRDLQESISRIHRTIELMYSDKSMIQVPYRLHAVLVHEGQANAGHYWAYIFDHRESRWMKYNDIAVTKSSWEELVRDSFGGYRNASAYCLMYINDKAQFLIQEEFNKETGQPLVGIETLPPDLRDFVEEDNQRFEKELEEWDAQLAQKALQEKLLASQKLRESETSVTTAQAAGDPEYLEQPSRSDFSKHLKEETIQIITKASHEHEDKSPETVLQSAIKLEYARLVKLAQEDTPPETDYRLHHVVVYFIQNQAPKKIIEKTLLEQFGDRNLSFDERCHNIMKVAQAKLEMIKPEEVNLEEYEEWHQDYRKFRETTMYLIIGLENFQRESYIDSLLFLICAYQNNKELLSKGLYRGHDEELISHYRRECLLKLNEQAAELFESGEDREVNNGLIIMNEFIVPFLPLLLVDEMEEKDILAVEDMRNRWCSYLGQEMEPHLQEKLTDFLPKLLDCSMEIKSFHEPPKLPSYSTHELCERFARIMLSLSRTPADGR
Procedure, shortened: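 USP25-His6 (75 pM) was preincubated with compound (10-point, 3-fold series, 25 μM to 1.3 nM) for 30 min in 20 mM Tris-HCl pH 8.0, 3 mM BME, 0.03% BGG, 0.01% Triton X-100. Ub-Rh110 (25 nM, <<Km) was then added for 45 min at room temperature, citric acid-stopped, and fluorescence read at 485/535 nm.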

SMILES	IC50 [µM]
Cc1ccc2c(N)c(C(=O)N[C@H]3COc4cc(N5C[C@@H](N)[C@@]6(CCCO6)C5)ccc4C3)sc2n1 [Example 308, 3-amino-N-[(3R)-7-[(5R,9R)-9-amino-1-oxa-7-azaspiro[4.4]nonan-7-yl]-3,4-dihydro-2H-1-benzopyran-3-yl]-6-methylthieno[2,3-b]pyridine-2-carboxamide]	0.2 to 2
Cc1ccc2c(N)c(C(=O)N[C@H]3COc4cc(N5C[C@@H](N)[C@]6(CCCO6)C5)ccc4C3)sc2n1 [Example 309, 3-amino-N-[(3R)-7-[(5S,9R)-9-amino-1-oxa-7-azaspiro[4.4]nonan-7-yl]-3,4-dihydro-2H-1-benzopyran-3-yl]-6-methylthieno[2,3-b]pyridine-2-carboxamide]	0.05 to 0.2
Cc1ccc2c(N)c(C(=O)N[C@H]3COc4cc(N5C[C@H](N)[C@@]6(CCCO6)C5)ccc4C3)sc2n1 [Example 310, 3-amino-N-[(3R)-7-[(5R,9S)-9-amino-1-oxa-7-azaspiro[4.4]nonan-7-yl]-3,4-dihydro-2H-1-benzopyran-3-yl]-6-methylthieno[2,3-b]pyridine-2-carboxamide]	0.2 to 2
CN[C@H]1CN(c2ccc3c(n2)CC[C@H](NC(=O)c2sc4nc(C)ccc4c2N)C3)C[C@@H]1OC [Example 311, 3-amino-N-[(6S)-2-[(3S,4S)-3-methoxy-4-(methylamino)pyrrolidin-1-yl]-5,6,7,8-tetrahydroquinolin-6-yl]-6-methylthieno[2,3-b]pyridine-2-carboxamide]	> 2
CN[C@H]1CN(c2ccc3c(n2)CC[C@H](NC(=O)c2sc4nc(C)cc(C)c4c2N)C3)C[C@@H]1OC [Example 312, 3-amino-N-[(6S)-2-[(3S,4S)-3-methoxy-4-(methylamino)pyrrolidin-1-yl]-5,6,7,8-tetrahydroquinolin-6-yl]-4,6-dimethylthieno[2,3-b]pyridine-2-carboxamide]	> 2
CCOC[C@@H]1CN(c2ccc3c(c2)OC[C@H](NC(=O)c2sc4nc(C)ccc4c2N)C3)C[C@@H]1N [Example 313, 3-amino-N-[(3R)-7-[(3R,4R)-3-amino-4-(ethoxymethyl)pyrrolidin-1-yl]-3,4-dihydro-2H-1-benzopyran-3-yl]-6-methylthieno[2,3-b]pyridine-2-carboxamide]	0.2 to 2
CCOC[C@H]1CN(c2ccc3c(c2)OC[C@H](NC(=O)c2sc4nc(C)ccc4c2N)C3)C[C@H]1N [Example 314, 3-amino-N-[(3R)-7-[(3S,4S)-3-amino-4-(ethoxymethyl)pyrrolidin-1-yl]-3,4-dihydro-2H-1-benzopyran-3-yl]-6-methylthieno[2,3-b]pyridine-2-carboxamide]	0.05 to 0.2
CO[C@H]1CCN(c2ccc3c(c2)OC[C@H](NC(=O)c2sc4nc(C)cc(C)c4c2N)C3)C[C@@H]1N [Example 317, 3-amino-N-[(3R)-7-[(3S,4S)-3-amino-4-methoxypiperidin-1-yl]-3,4-dihydro-2H-1-benzopyran-3-yl]-4,6-dimethylthieno[2,3-b]pyridine-2-carboxamide]	0.2 to 2
CO[C@@H]1CCN(c2ccc3c(c2)OC[C@H](NC(=O)c2sc4nc(C)cc(C)c4c2N)C3)C[C@H]1N [Example 318, 3-amino-N-[(3R)-7-[(3R,4R)-3-amino-4-methoxypiperidin-1-yl]-3,4-dihydro-2H-1-benzopyran-3-yl]-4,6-dimethylthieno[2,3-b]pyridine-2-carboxamide]	0.2 to 2
Cc1cnc2c(N)c(C(=O)N[C@H]3CCc4cc(N5C[C@H](OC(C)C)[C@@H](N)C5)ccc4C3)sc2n1 [Example 319, 7-amino-N-[(2S)-6-[(3S,4S)-3-amino-4-(propan-2-yloxy)pyrrolidin-1-yl]-1,2,3,4-tetrahydronaphthalen-2-yl]-3-methylthieno[2,3-b]pyrazine-6-carboxamide]	> 2
Cc1ccc2c(N)c(C(=O)N[C@H]3CCc4nc(N5C[C@H](OC(C)C)[C@@H](N)C5)ccc4C3)sc2n1 [Example 320]	> 2
Cc1ccc2c(N)c(C(=O)N[C@H]3CCc4nc(N5C[C@H](N)[C@H](OC(C)C)C5)ccc4C3)sc2n1 [Example 321, 3-amino-N-[(6S)-2-[(3S,4R)-3-amino-4-(propan-2-yloxy)pyrrolidin-1-yl]-5,6,7,8-tetrahydroquinolin-6-yl]-6-methylthieno[2,3-b]pyridine-2-carboxamide]	> 2
Cc1ccc2c(N)c(C(=O)N[C@H]3CCc4nc(N5C[C@@H](N)[C@@H](OC(C)C)C5)ccc4C3)sc2n1 [Example 322, 3-amino-N-[(6S)-2-[(3R,4S)-3-amino-4-(propan-2-yloxy)pyrrolidin-1-yl]-5,6,7,8-tetrahydroquinolin-6-yl]-6-methylthieno[2,3-b]pyridine-2-carboxamide]	> 2
CCO[C@H]1CN(c2ccc3c(c2)OC[C@H](NC(=O)c2sc4nc(C)cc(C)c4c2N)C3)C[C@H]1N [Example 324, 3-amino-N-[(3R)-7-[(3R,4S)-3-amino-4-ethoxypyrrolidin-1-yl]-3,4-dihydro-2H-1-benzopyran-3-yl]-4,6-dimethylthieno[2,3-b]pyridine-2-carboxamide]	0.2 to 2
CO[C@@]1(C)CN(c2ccc3c(n2)OC[C@H](NC(=O)c2sc4nc(C)ccc4c2N)C3)C[C@@H]1N [Example 325, 3-amino-N-[(3R)-7-[(3S,4S)-4-amino-3-methoxy-3-methylpyrrolidin-1-yl]-2H,3H,4H-pyrano[2,3-b]pyridin-3-yl]-6-methylthieno[2,3-b]pyridine-2-carboxamide]	> 2
CO[C@]1(C)CN(c2ccc3c(n2)OC[C@H](NC(=O)c2sc4nc(C)ccc4c2N)C3)C[C@H]1N [Example 326, 3-amino-N-[(3R)-7-[(3R,4R)-4-amino-3-methoxy-3-methylpyrrolidin-1-yl]-2H,3H,4H-pyrano[2,3-b]pyridin-3-yl]-6-methylthieno[2,3-b]pyridine-2-carboxamide]	> 2
COC[C@H]1CN(c2ccc3c(n2)CC[C@H](NC(=O)c2sc4nc(C)ccc4c2N)C3)C[C@@H]1N [Example 327, 3-amino-N-[(6S)-2-[(3R,4S)-3-amino-4-(methoxymethyl)pyrrolidin-1-yl]-5,6,7,8-tetrahydroquinolin-6-yl]-6-methylthieno[2,3-b]pyridine-2-carboxamide]	0.2 to 2
COC[C@@H]1CN(c2ccc3c(n2)CC[C@H](NC(=O)c2sc4nc(C)ccc4c2N)C3)C[C@H]1N [Example 328, 3-amino-N-[(6S)-2-[(3S,4R)-3-amino-4-(methoxymethyl)pyrrolidin-1-yl]-5,6,7,8-tetrahydroquinolin-6-yl]-6-methylthieno[2,3-b]pyridine-2-carboxamide]	> 2
Cc1ccc2c(N)c(C(=O)N[C@H]3CCc4nc(N5C[C@H]6NCCC(F)(F)[C@H]6C5)ccc4C3)sc2n1 [Example 329, N-[(6S)-2-[(4aS,7aS)-4,4-difluoro-octahydro-1H-pyrrolo[3,4-b]pyridin-6-yl]-5,6,7,8-tetrahydroquinolin-6-yl]-3-amino-6-methylthieno[2,3-b]pyridine-2-carboxamide]	0.2 to 2
Cc1ccc2c(N)c(C(=O)N[C@H]3CCc4nc(N5C[C@@H]6NCCC(F)(F)[C@@H]6C5)ccc4C3)sc2n1 [Example 330, N-[(6S)-2-[(4aR,7aR)-4,4-difluoro-octahydro-1H-pyrrolo[3,4-b]pyridin-6-yl]-5,6,7,8-tetrahydroquinolin-6-yl]-3-amino-6-methylthieno[2,3-b]pyridine-2-carboxamide]	> 2
CN[C@H]1CN(c2ccc3c(n2)CC[C@H](NC(=O)c2sc4nc(C)ccc4c2N)C3)C[C@@]1(C)O [Example 331, 3-amino-N-[(6S)-2-[(3R,4S)-3-hydroxy-3-methyl-4-(methylamino)pyrrolidin-1-yl]-5,6,7,8-tetrahydroquinolin-6-yl]-6-methylthieno[2,3-b]pyridine-2-carboxamide]	> 2
CN[C@@H]1CN(c2ccc3c(n2)CC[C@H](NC(=O)c2sc4nc(C)ccc4c2N)C3)C[C@]1(C)O [Example 332, 3-amino-N-[(6S)-2-[(3S,4R)-3-hydroxy-3-methyl-4-(methylamino)pyrrolidin-1-yl]-5,6,7,8-tetrahydroquinolin-6-yl]-6-methylthieno[2,3-b]pyridine-2-carboxamide]	> 2
